Source: patent US20050065176A1, “Combinations” (priority 2003, published 2005)
Where a name gives a salt, the structure may show the parent alone.

Tests used:
[1] = Plasma concentration (Cmax) of gabapentin in the rat

| SMILES | melting point | Cmax [1] |
| --- | --- | --- |
| CCC[C@@H](C)C[C@H](CN)C(=O)O (as salt: hydrochloride) | 226.3 to 228 °C |  |
| CCCC[C@@H](C)C[C@H](N)CC(=O)O (as salt: hydrochloride) | 142.5 to 143.3 °C |  |
| CCCC(C)(C)C[C@H](N)CC(=O)O (as salt: hydrochloride) (hydrate or solvate) | 194.2 to 195.2 °C |  |
| CCC[C@@H](C)C[C@H](N)CC(=O)O.Cl | 142.5 to 142.7 °C |  |
| NCC1(CC(=O)O)CCCCC1 [gabapentin, 1-(aminomethyl)-cyclohexylacetic acid] |  | 520 to 10500 ng/mL |
| CCCC(C)(C)CC(CN)C(=O)O.Cl (stereo not drawn) | 229.5 to 231 °C |  |
